{
  "source": "patent US20240350650A1",
  "about": "“LINKER AND CONJUGATE THEREFOR” (BEIJING HOPE PHARMACEUTICAL CO.LTD., priority 2021, published 2024)",
  "assay_in_all_cases": "Inhibition of tumor cell proliferation (CTG, 6 days)",
  "format_in_all_cases": "cell-based, human",
  "key": {"SNU216 cells": {"system": "SNU216 cells", "conditions": "FIG. 6", "procedure": "(§1) All the cells were those with high expression of Trop2 antigens. Trodelvy was the tradename of sacituzumab govitecan injector. Sacituzumab was an outsourced anti-Trop2 antibody. All cell lines were cultured in the complete medium at 37° C. with 5% CO2. Cells in the logarithmic growth phase were harvested and then counted using a […], and the cell viability was tested by the trypan blue rejection method to ensure that the cell viability was above 90%. […] The cells in the 96-well plate were cultured at 37° C. with 5% CO2. […] The cells from the dosed 96-well plate were cultured at 37° C. with 5% CO2 for another 6 days, followed by CTG analysis (CTG, a CellTiter-Glo kit, was a homogeneous cell viability assay for quantifying ATP to determine the viability of cultured cells). The CTG reagent was thawed, and the cell plate was equilibrated to room temperature for 30 min. 100 μL of CTG solution was added per well. The cells were shaken on an orbital shaker for 5 min for lysis. The cell plate was treated at room temperature for 20 min to stabilize the cold light signal. The cold light values were read to collect data. […] [formula]"}, "NCI-H596 cells": {"system": "NCI-H596 cells", "conditions": "FIG. 8", "procedure": "as §1"}, "NCI-H1650 cells": {"system": "NCI-H1650 cells", "conditions": "FIG. 7", "procedure": "as §1"}, "MDA-MB-468 cells": {"system": "MDA-MB-468 cells", "conditions": "FIG. 5", "procedure": "as §1"}},
  "data": [
    {"substance": "Trodelvy", "values": [
      {"measurement": "efficacy (in words)", "setting": "SNU216 cells", "result": "superior to Sacituzumab"},
      {"measurement": "efficacy (in words)", "setting": "NCI-H596 cells", "result": "certain efficacy"},
      {"measurement": "efficacy (in words)", "setting": "NCI-H1650 cells", "result": "superior to Sacituzumab"},
      {"measurement": "efficacy (in words)", "setting": "MDA-MB-468 cells", "result": "superior to Sacituzumab"}
    ]}
  ]
}
